Reference: the supplement of paper PMC10307832

Tests used:
Test in all cases: relative viability (nuclei count vs DMSO), 5 days (fraction); higher = more cells survive
[1] = compound: CC1=C(C=CC(=C1)[N+](=O)[O-])NS(=O)(=O)C2=C(C=CC(=C2)Cl)Cl [FH535] + CC(=O)Nc1cccc(-n2c(=O)n(C3CC3)c(=O)c3c(Nc4ccc(I)cc4F)n(C)c(=O)c(C)c32)c1 [Trametinib] (partner 0.02 µM)
Procedure, shortened: (§1)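 Nuclei were stained with Hoechst during a one-step fixation (final 0.05% Triton X-100, 1% formaldehyde, 1 ug/ml Hoechst) carried out 5 days after dosing, then counted on 4× images. The cells, lung cancer lines in 1536-well plates, had been dosed by pin tool the day after seeding with one drug alone or a fixed anchor-drug dose plus five library-drug doses (not always all listed) in √10 steps. Relative viability is the nuclei count in treated wells divided by that in vehicle wells, and each value is the median of duplicate plates.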

[2] = compound: CC1=C(C=CC(=C1)[N+](=O)[O-])NS(=O)(=O)C2=C(C=CC(=C2)Cl)Cl [FH535] + CC(=O)c1c(C)c2cnc(Nc3ccc(N4CCNCC4)cn3)nc2n(C2CCCC2)c1=O [Palbociclib] (partner 0.5 µM)
Procedure, shortened: as §1

[3] = compound: CC1=C(C=CC(=C1)[N+](=O)[O-])NS(=O)(=O)C2=C(C=CC(=C2)Cl)Cl [FH535] + Cc1cc(Nc2cc(N3CCN(C)CC3)nc(Sc3ccc(NC(=O)C4CC4)cc3)n2)n[nH]1 [Tozasertib] (partner 0.1 µM)
Procedure, shortened: as §1

[4] = compound: CC1=C(C=CC(=C1)[N+](=O)[O-])NS(=O)(=O)C2=C(C=CC(=C2)Cl)Cl [FH535] + Cc1nc(Nc2ncc(C(=O)Nc3c(C)cccc3Cl)s2)cc(N2CCN(CCO)CC2)n1 [Dasatinib] (partner 0.075 µM)
Procedure, shortened: as §1

[5] = compound: CC1=C(C=CC(=C1)[N+](=O)[O-])NS(=O)(=O)C2=C(C=CC(=C2)Cl)Cl [FH535] + NC(=O)Nc1cc(-c2cccc(F)c2)sc1C(=O)N[C@H]1CCCNC1 [AZD7762] (partner 0.2 µM)
Procedure, shortened: as §1

Cell Line | relative viability ([1]; first compound 0.04 µM) | relative viability ([1]; first compound 0.1265 µM) | relative viability ([1]; first compound 0.4 µM) | relative viability ([1]; first compound 1.265 µM) | relative viability ([2]; first compound 0.04 µM) | relative viability ([2]; first compound 0.1265 µM) | relative viability ([2]; first compound 0.4 µM) | relative viability ([2]; first compound 1.265 µM) | relative viability ([3]; first compound 0.04 µM) | relative viability ([3]; first compound 0.1265 µM) | relative viability ([3]; first compound 0.4 µM) | relative viability ([3]; first compound 1.265 µM) | relative viability ([4]; first compound 0.04 µM) | relative viability ([4]; first compound 0.1265 µM) | relative viability ([4]; first compound 0.4 µM) | relative viability ([4]; first compound 1.265 µM) | relative viability ([5]; first compound 0.04 µM) | relative viability ([5]; first compound 0.1265 µM) | relative viability ([5]; first compound 0.4 µM) | relative viability ([5]; first compound 1.265 µM)
EMC-BAC-2 | 0.804 | 0.9 | 0.869 | 0.892 | 0.546 | 0.507 | 0.526 | 0.512 | 0.289 | 0.312 | 0.306 | 0.254 | 0.302 | 0.358 | 0.317 | 0.319 | 0.828 | 1.06 | 1.04 | 0.985
LU99A | 0.475 | 0.572 | 0.576 | 0.338 | 0.35 | 0.436 | 0.432 | 0.342 | 0.297 | 0.281 | 0.329 | 0.273 | 0.435 | 0.439 | 0.468 | 0.507 | 0.205 | 0.353 | 0.354 | 0.328
RERF-LC-KJ | 0.862 | 0.921 | 0.869 | 0.744 | 0.992 | 1.05 | 0.957 | 0.846 | 0.515 | 0.52 | 0.473 | 0.386 | 0.845 | 0.805 | 0.747 | 0.502 | 0.905 | 1.02 | 0.931 | 0.704
NCI-H647 | 0.51 | 0.566 | 0.424 | 0.418 | 0.401 | 0.445 | 0.27 | 0.4 | 0.314 | 0.145 | 0.176 | 0.42 | 0.183 | 0.193 | 0.129 | 0.152 | 0.557 | 0.519 | 0.322 | 0.418
LCLC-97TM1 | 0.175 | 0.191 | 0.178 | 0.203 | 0.199 | 0.203 | 0.235 | 0.135 | 0.229 | 0.284 | 0.282 | 0.161 | 0.726 | 0.797 | 0.811 | 0.77 | 0.127 | 0.276 | 0.278 | 0.227
NCI-H1993 | 0.57 | 0.566 | 0.496 | 0.52 | 0.651 | 0.661 | 0.592 | 0.415 | 0.53 | 0.596 | 0.551 | 0.472 | 0.526 | 0.597 | 0.474 | 0.427 | 0.927 | 0.704 | 0.626 | 0.532
HARA | 0.759 | 0.711 | 0.643 | 0.461 | 0.233 | 0.278 | 0.277 | 0.241 | 0.0901 | 0.133 | 0.128 | 0.0965 | 0.358 | 0.194 | 0.205 | 0.182 | 0.19 | 0.426 | 0.305 | 0.358
EKVX | 0.319 | 0.391 | 0.292 | 0.293 | 0.422 | 0.396 | 0.333 | 0.292 | 0.405 | 0.402 | 0.452 | 0.333 | 0.336 | 0.705 | 0.511 | 0.243 | 0.77 | 0.661 | 0.631 | 0.559
NCI-H1755 | 0.755 | 0.809 | 0.725 | 0.739 | 0.428 | 0.413 | 0.463 | 0.448 | 0.569 | 0.533 | 0.515 | 0.525 | 0.353 | 0.46 | 0.404 | 0.422 | 0.418 | 0.439 | 0.475 | 0.444
NCI-H1395 | 0.936 | 1.02 | 1.06 | 0.874 | 0.599 | 0.735 | 0.63 | 0.561 | 0.68 | 0.872 | 0.774 | 0.678 | 0.361 | 0.402 | 0.413 | 0.344 | 0.381 | 0.426 | 0.368 | 0.393
NCI-H2087 | 0.243 | 0.152 | 0.182 | 0.157 | 0.23 | 0.176 | 0.21 | 0.158 | 0.252 | 0.223 | 0.276 | 0.212 | 0.685 | 0.711 | 0.714 | 0.675 | 1.24 | 1.21 | 1.17 | 0.78
H3255 | 0.563 | 0.604 | 0.582 | 0.55 | 0.302 | 0.307 | 0.346 | 0.307 | 0.62 | 0.716 | 0.659 | 0.452 | 0.341 | 0.473 | 0.408 | 0.346 | 0.806 | 0.918 | 0.853 | 0.788
NCI-H1944 | 0.405 | 0.42 | 0.398 | 0.325 | 0.328 | 0.326 | 0.35 | 0.272 | 0.237 | 0.265 | 0.234 | 0.236 | 0.179 | 0.209 | 0.222 | 0.204 | 0.316 | 0.527 | 0.588 | 0.48
NCI-H2347 | 0.276 | 0.318 | 0.3 | 0.291 | 0.456 | 0.342 | 0.416 | 0.397 | 0.633 | 0.461 | 0.522 | 0.631 | 0.298 | 0.292 | 0.294 | 0.261 | 0.696 | 0.819 | 0.764 | 0.761
HCC-827 | 0.504 | 0.545 | 0.538 | 0.42 | 0.501 | 0.479 | 0.489 | 0.332 | 0.425 | 0.452 | 0.433 | 0.347 | 0.35 | 0.291 | 0.273 | 0.364 | 0.203 | 0.205 | 0.278 | 0.221
